Tests used:
Assay in all cases: KINOMEscan
Assay type in all cases: binding
[1] = target: AAKI (Homo sapiens (Human), UniProt Q2M2I8); conditions: read-out: percent of control
Procedure: (§1) In vitro profiling of Compound I-2 (1 μM) was performed using the DiscoveRx KINOMEscan® platform.

[2] = target: ABL1(Q252H)-nonphosphorylated (Homo sapiens (Human), UniProt P00519, Q252H); conditions: read-out: percent of control
Procedure: as §1

[3] = target: ALK(C1156Y) (Homo sapiens (Human), UniProt Q9UM73, C1156Y); conditions: read-out: percent of control
Procedure: as §1

[4] = target: BIKE (Homo sapiens (Human), UniProt Q9NSY1); conditions: read-out: percent of control
Procedure: as §1

[5] = target: BUB1 (Homo sapiens (Human), UniProt O43683); conditions: read-out: percent of control
Procedure: as §1

[6] = target: CAMK1G (Homo sapiens (Human), UniProt Q96NX5); conditions: read-out: percent of control
Procedure: as §1

[7] = target: CSK (Homo sapiens (Human), UniProt P41240); conditions: read-out: percent of control
Procedure: as §1

[8] = target: DYRKIA (Homo sapiens (Human), UniProt Q13627); conditions: read-out: percent of control
Procedure: as §1

[9] = target: EGFR(S752-I759del) (Homo sapiens (Human), UniProt P00533, DEL752-759); conditions: read-out: percent of control
Procedure: as §1

[10] = target: EPHB4 (Homo sapiens (Human), UniProt P54760); conditions: read-out: percent of control
EPHB4, sequence (P54760 16-987): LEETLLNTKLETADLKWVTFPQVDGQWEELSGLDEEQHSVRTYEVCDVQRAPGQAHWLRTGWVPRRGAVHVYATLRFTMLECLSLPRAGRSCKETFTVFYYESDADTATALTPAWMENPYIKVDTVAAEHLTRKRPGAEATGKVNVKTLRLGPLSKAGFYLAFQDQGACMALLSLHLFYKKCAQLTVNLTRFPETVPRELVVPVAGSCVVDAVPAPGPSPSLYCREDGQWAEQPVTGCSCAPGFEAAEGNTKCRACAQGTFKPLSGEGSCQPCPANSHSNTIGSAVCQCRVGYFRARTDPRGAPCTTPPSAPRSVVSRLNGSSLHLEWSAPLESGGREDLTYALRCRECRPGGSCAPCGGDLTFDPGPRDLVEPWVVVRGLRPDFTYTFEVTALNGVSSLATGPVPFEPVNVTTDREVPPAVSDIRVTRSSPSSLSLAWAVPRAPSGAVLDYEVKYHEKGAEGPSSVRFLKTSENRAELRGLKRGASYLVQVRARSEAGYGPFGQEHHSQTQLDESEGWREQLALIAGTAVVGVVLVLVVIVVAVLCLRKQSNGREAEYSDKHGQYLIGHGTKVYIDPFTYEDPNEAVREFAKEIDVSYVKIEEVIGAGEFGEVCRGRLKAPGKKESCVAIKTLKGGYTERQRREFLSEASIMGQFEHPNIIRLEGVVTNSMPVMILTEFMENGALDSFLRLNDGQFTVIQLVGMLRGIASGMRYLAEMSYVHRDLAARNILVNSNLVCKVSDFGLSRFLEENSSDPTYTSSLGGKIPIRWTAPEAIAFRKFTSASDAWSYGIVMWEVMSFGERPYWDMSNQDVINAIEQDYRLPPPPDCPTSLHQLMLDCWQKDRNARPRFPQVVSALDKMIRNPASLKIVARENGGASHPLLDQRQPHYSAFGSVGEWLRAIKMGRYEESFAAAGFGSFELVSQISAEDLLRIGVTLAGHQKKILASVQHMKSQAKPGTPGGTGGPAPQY
Procedure: as §1

[11] = target: ERN1 (Homo sapiens (Human), UniProt O75460); conditions: read-out: percent of control
Procedure: as §1

[12] = target: FGFR4 (Homo sapiens (Human), UniProt P22455); conditions: read-out: percent of control
FGFR4, sequence (P22455 22-802): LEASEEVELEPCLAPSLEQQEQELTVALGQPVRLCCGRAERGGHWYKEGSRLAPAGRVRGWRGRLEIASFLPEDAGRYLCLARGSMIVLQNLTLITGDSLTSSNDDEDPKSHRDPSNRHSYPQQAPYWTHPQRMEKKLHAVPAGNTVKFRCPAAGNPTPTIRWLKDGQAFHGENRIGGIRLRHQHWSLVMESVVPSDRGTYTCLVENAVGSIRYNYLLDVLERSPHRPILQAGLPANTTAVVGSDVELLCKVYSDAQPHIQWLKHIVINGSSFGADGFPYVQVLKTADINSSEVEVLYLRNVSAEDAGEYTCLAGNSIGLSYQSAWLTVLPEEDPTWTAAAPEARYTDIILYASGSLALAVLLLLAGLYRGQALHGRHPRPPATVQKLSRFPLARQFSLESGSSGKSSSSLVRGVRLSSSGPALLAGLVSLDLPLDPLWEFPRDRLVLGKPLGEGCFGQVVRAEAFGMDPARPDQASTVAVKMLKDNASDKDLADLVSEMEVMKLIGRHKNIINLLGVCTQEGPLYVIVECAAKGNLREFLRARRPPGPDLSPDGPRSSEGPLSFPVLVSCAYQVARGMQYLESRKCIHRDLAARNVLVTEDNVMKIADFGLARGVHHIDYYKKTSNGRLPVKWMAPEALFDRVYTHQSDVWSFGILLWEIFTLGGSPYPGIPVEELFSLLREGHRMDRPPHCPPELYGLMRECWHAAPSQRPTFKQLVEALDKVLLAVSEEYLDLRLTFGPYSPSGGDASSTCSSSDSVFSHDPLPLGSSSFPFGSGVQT
Procedure: as §1

[13] = test system: FLT3 (ITD,F691L); conditions: 1 μM
Procedure: as §1

[14] = target: GRK1 (Homo sapiens (Human), UniProt Q15835); conditions: read-out: percent of control
Procedure: as §1

[15] = target: GRK4 (Homo sapiens (Human), UniProt P32298); conditions: read-out: percent of control
Procedure: as §1

[16] = target: HIPK3 (Homo sapiens (Human), UniProt Q9H422); conditions: read-out: percent of control
Procedure: as §1

[17] = target: IKK-beta (Homo sapiens (Human), UniProt O14920); conditions: read-out: percent of control
Procedure: as §1

[18] = target: LKB1 (Homo sapiens (Human), UniProt Q15831); conditions: read-out: percent of control
LKB1, sequence (Q15831 whole entry): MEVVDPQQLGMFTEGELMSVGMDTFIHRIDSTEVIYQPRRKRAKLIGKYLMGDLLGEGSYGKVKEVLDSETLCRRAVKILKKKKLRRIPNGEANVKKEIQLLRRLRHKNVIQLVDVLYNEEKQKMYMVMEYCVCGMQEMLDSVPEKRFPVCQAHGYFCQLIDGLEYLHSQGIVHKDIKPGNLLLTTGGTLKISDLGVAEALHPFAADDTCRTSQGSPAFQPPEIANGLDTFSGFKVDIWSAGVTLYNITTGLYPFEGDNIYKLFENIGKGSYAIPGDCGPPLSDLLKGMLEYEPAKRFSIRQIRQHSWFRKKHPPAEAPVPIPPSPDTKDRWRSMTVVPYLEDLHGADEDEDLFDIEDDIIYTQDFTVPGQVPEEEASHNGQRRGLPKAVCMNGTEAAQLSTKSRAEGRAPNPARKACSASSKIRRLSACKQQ
Procedure: as §1

[19] = target: MAPKAPK5 (Homo sapiens (Human), UniProt Q8IW41); conditions: read-out: percent of control
MAPKAPK5, sequence (Q8IW41 whole entry): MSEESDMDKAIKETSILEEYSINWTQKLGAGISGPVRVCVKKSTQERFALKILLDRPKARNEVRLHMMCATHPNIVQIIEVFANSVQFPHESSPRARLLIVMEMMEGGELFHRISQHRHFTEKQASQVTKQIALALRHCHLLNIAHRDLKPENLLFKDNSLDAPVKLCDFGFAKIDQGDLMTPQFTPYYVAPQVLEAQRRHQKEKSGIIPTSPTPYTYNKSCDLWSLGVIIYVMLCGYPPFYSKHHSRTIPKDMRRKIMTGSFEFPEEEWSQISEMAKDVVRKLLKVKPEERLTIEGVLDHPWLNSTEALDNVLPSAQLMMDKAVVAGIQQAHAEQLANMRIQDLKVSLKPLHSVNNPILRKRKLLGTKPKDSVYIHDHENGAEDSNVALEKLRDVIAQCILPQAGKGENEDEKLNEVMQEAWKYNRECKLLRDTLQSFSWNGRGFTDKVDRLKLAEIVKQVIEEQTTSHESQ
Procedure: as §1

[20] = target: MARK2 (Homo sapiens (Human), UniProt Q7KZI7); conditions: read-out: percent of control
Procedure: as §1

[21] = target: MEK5 (Homo sapiens (Human), UniProt Q13163); conditions: read-out: percent of control
MEK5, sequence (Q13163 whole entry): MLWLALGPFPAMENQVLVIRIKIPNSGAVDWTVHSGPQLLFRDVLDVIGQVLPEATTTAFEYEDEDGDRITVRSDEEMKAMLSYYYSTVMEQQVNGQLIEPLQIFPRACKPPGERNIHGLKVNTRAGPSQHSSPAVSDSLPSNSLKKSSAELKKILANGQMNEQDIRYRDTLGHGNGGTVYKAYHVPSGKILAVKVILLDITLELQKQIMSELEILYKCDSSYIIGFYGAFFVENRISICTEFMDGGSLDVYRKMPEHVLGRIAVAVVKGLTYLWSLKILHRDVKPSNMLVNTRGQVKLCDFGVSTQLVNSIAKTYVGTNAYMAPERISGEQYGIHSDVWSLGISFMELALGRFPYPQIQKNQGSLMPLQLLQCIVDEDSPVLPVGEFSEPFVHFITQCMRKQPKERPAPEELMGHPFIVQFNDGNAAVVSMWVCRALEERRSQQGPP
Procedure: as §1

[22] = target: MEK6 (Homo sapiens (Human), UniProt P52564); conditions: read-out: percent of control
Procedure: as §1

[23] = target: MET(M1250T) (Homo sapiens (Human), UniProt P08581, M1250T); conditions: read-out: percent of control
Procedure: as §1

[24] = target: MRCKB (Homo sapiens (Human), UniProt Q9Y5S2); conditions: read-out: percent of control
MRCKB, sequence (Q9Y5S2 whole entry): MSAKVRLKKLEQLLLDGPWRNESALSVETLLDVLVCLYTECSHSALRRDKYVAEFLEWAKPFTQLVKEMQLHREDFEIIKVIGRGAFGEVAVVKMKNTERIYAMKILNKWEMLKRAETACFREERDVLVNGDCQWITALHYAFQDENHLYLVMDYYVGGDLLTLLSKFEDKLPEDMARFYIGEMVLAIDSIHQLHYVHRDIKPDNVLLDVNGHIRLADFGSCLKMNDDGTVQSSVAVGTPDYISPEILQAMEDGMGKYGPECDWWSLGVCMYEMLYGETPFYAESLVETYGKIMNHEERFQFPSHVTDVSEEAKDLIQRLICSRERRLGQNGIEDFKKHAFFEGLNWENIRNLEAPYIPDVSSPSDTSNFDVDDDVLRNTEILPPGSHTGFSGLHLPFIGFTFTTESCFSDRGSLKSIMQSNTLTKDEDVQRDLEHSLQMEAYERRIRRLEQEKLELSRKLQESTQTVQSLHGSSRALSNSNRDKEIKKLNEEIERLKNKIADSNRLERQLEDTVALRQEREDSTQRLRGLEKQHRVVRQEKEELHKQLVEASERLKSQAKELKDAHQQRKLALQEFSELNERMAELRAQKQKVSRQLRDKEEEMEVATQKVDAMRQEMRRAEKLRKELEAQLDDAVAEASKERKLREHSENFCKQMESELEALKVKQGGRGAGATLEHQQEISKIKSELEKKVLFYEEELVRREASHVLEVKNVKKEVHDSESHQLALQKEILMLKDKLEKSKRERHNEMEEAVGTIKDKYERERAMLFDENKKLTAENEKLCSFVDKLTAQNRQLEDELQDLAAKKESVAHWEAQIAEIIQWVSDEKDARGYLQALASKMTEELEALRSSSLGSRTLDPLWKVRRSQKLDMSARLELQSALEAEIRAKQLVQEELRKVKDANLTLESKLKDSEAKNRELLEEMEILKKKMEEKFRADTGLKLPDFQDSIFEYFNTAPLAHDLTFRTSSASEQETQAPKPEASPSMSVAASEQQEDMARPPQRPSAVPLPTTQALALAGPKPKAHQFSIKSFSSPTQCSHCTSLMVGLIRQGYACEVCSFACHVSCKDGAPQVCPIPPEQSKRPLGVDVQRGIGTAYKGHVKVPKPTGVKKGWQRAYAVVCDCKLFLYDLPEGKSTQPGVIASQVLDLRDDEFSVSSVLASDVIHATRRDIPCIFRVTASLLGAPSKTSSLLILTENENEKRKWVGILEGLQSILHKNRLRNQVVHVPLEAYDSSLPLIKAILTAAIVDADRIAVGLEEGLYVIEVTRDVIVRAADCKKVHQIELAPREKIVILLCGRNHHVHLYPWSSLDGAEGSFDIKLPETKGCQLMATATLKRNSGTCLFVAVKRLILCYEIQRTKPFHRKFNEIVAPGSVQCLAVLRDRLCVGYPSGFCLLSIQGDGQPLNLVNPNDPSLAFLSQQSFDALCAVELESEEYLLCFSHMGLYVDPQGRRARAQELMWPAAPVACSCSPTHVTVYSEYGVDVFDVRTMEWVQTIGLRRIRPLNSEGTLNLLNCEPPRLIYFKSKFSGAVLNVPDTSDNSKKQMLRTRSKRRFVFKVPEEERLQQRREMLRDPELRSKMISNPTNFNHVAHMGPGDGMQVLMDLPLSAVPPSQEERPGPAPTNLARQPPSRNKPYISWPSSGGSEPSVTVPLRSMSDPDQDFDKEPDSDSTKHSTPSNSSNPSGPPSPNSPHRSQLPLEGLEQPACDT
Procedure: as §1

[25] = target: PHKG2 (Homo sapiens (Human), UniProt P15735); conditions: read-out: percent of control
Procedure: as §1

[26] = target: PKAC-alpha (Homo sapiens (Human), UniProt P17612); conditions: read-out: percent of control
Procedure: as §1

[27] = target: PKN1 (Homo sapiens (Human), UniProt Q16512); conditions: read-out: percent of control
Procedure: as §1

[28] = target: PKN2 (Homo sapiens (Human), UniProt Q16513); conditions: read-out: percent of control
Procedure: as §1

[29] = target: PKNB (M.tuberculosis) (Mycobacterium tuberculosis (strain ATCC 25618 / H37Rv), UniProt P9WI81); conditions: read-out: percent of control
Procedure: as §1

[30] = target: PRKX (Homo sapiens (Human), UniProt P51817); conditions: read-out: percent of control
Procedure: as §1

[31] = target: RET (Homo sapiens (Human), UniProt P07949); conditions: read-out: percent of control
Procedure: as §1

[32] = target: RSK1 (Kin.Dom.2-C-terminal) (Homo sapiens (Human), UniProt Q15418); conditions: read-out: percent of control
Procedure: as §1

[33] = target: RSK2 (Kin.Dom.2-C-terminal) (Homo sapiens (Human), UniProt P51812); conditions: read-out: percent of control
RSK2 (Kin.Dom.2-C-terminal), sequence (P51812 422-679): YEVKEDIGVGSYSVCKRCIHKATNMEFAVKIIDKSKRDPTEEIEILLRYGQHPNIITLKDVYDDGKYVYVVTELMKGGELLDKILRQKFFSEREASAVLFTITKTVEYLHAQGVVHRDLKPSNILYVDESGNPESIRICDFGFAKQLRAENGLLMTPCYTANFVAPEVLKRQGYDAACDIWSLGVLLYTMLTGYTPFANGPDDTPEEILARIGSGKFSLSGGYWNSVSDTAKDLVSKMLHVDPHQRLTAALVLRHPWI
Procedure: as §1

[34] = target: TLK1 (Homo sapiens (Human), UniProt Q9UKI8); conditions: read-out: percent of control
Procedure: as §1

[35] = target: TRPM6 (Homo sapiens (Human), UniProt Q9BX84); conditions: read-out: percent of control
Procedure: as §1

[36] = target: VEGFR2 (Homo sapiens (Human), UniProt P35968); conditions: read-out: percent of control
Procedure: as §1

[37] = target: WEE1 (Homo sapiens (Human), UniProt P30291); conditions: read-out: percent of control
Procedure: as §1

[38] = target: p38-beta (Homo sapiens (Human), UniProt Q15759); conditions: read-out: percent of control
Procedure: as §1

SMILES | remaining binding at 1 µM [1] | remaining binding at 1 µM [2] | remaining binding at 1 µM [3] | remaining binding at 1 µM [4] | remaining binding at 1 µM [5] | remaining binding at 1 µM [6] | remaining binding at 1 µM [7] | remaining binding at 1 µM [8] | remaining binding at 1 µM [9] | remaining binding at 1 µM [10] | remaining binding at 1 µM [11] | remaining binding at 1 µM [12] | percent of control [13] | remaining binding at 1 µM [14] | remaining binding at 1 µM [15] | remaining binding at 1 µM [16] | remaining binding at 1 µM [17] | remaining binding at 1 µM [18] | remaining binding at 1 µM [19] | remaining binding at 1 µM [20] | also measured
CCN1CCN(Cc2cc(NC(=O)c3ccc(C)c(-c4ccc5nc(NC(=O)C6CC6)cn5n4)c3)cc(C(F)(F)F)c2)CC1 [Compound I-2, 3-(2-(cyclopropanecarboxamido)imidazo[1,2-b]pyridazin-6-yl)-N-(3-((4-ethylpiperazin-1-yl)methyl)-5-(trifluoromethyl)phenyl)-4-methylbenzamide] | 100% | 0% | 30% | 96% | 100% | 85% | 39% | 92% | 80% | 1.3% | 84% | 100% | 12% | 91% | 81% | 56% | 50% | 73% | 72% | 96% | remaining binding at 1 µM [21]: 21%; remaining binding at 1 µM [22]: 94%; remaining binding at 1 µM [23]: 9.9%; remaining binding at 1 µM [24]: 100%; remaining binding at 1 µM [25]: 93%; remaining binding at 1 µM [26]: 75%; remaining binding at 1 µM [27]: 98%; remaining binding at 1 µM [28]: 77%; remaining binding at 1 µM [29]: 78%; remaining binding at 1 µM [30]: 100%; remaining binding at 1 µM [31]: 0%; remaining binding at 1 µM [32]: 100%; remaining binding at 1 µM [33]: 78%; remaining binding at 1 µM [34]: 100%; remaining binding at 1 µM [35]: 93%; remaining binding at 1 µM [36]: 1.4%; remaining binding at 1 µM [37]: 94%; remaining binding at 1 µM [38]: 60%
CCN1CCN(Cc2cc(NC(=O)c3ccc(C)c(-c4ccc5nc(NC(=O)C6CC6)cn5c4)c3)cc(C(F)(F)F)c2)CC1 [Compound I-6, 3-(2-(cyclopropanecarboxamido)imidazo[1,2-a]pyridin-6-yl)-N-(3-((4-ethylpiperazin-1-yl)methyl)-5-(trifluoromethyl)phenyl)-4-methylbenzamide] | 89% | 0.15% | 29% | 100% | 97% | 100% | 21% | 100% | 65% | 0% | 78% | 100% | 34% | 93% | 98% | 98% | 80% | 100% | 100% | 78% | remaining binding at 1 µM [21]: 17%; remaining binding at 1 µM [22]: 95%; remaining binding at 1 µM [23]: 42%; remaining binding at 1 µM [24]: 100%; remaining binding at 1 µM [25]: 98%; remaining binding at 1 µM [26]: 97%; remaining binding at 1 µM [27]: 98%; remaining binding at 1 µM [28]: 100%; remaining binding at 1 µM [29]: 91%; remaining binding at 1 µM [30]: 100%; remaining binding at 1 µM [31]: 0%; remaining binding at 1 µM [32]: 96%; remaining binding at 1 µM [33]: 100%; remaining binding at 1 µM [34]: 97%; remaining binding at 1 µM [35]: 78%; remaining binding at 1 µM [36]: 2%; remaining binding at 1 µM [37]: 100%; remaining binding at 1 µM [38]: 62%
